From patent US20260364089A1, “PYRIDOPYRIMIDINE KRAS INHIBITORS” (Treeline Biosciences, Inc., priority 2022, published 2026)

These molecules were tested against T1, KRas G12V (Homo sapiens, UniProt P01116, G12V) (assay: SOS1-Catalyzed Nucleotide Exchange Assay, KRas G12V (Method 2)). Details: Method 2, A; 5 nM KRas G12V (aa 1-169, GDP-loaded), 50 nM SOS1; read-out: KRas G12V IC50 (nM) (Method 2, A).
T1 construct: Biotinylated KRas G12V (aa 1-169) loaded with GDP nucleotide; biotin (biotinylated)
T1 sequence (P01116 1-169 G12V): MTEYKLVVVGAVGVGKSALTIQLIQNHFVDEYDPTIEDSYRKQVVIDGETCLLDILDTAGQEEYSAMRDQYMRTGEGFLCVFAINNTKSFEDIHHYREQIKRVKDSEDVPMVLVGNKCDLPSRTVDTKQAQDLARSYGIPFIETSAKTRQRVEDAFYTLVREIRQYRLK
Assay type: biochemical
Protocol: KRas G12V [Method 2]: Compounds were pre-dispensed via Echo liquid handling (acoustic, touch-free) to generate assay ready plates (ARP). More precisely, a 10-point concentration response curve for each compound was prepared with appropriate top concentration (1 μM, 10 μM, 100 μM). Biotinylated KRas G12V (aa 1-169) loaded with GDP nucleotide and Streptavidin-Europium (SA-EU, Columbia Biosciences) were preincubated in assay buffer (20 mM HEPES pH 7.4, 150 mM NaCl, 5 mM MgCl2, 1 mM DTT, 0.01% Brij-35, 0.3 mg/mL BSA) on ice for 30 min. Separately SOS1 (aa 546-1049) and EDA-GTP-DY647P1 (Jena Bioscience) were preincubated in assay buffer on ice for 30 min. After 30 minutes of incubation for the assay components, 5 μL buffer and 5 μL of KRas G12V-SA-Eu were added to each well of the ARP. After a further 30 min, 5 μL of SOS1-EDA-GTP-D467P1 was added to start the nucleotide exchange reaction. Final concentration in the assay were 5 nM KRas G12V, 50 nM SOS1 (aa 564-1049). The reaction was allowed to proceed for 60-90 minutes after which the plate was read on a plate reader. After normalization of the raw data, the data was fit to a four-parameter logistic curve.

| IC50 [nM] | SMILES |
| --- | --- |
| 100 to 1000 | O=C1CCCc2c(F)ccc3cccc(c23)-c2ncc3c(nc(OC[C@@]45CCCN4C[C@H](F)C5)nc3c2F)N2CCOCC(CN1)C2 (stereo partly drawn) [Compound 193a, 2^8,3^7-difluoro-2^2-(((2R,7aS)-2-fluorotetrahydro-1H-pyrrolizin-7a(5H)-yl)methoxy)-8-aza-1(4,6)-oxazepana-2(4,7)-pyrido[4,3-d]pyrimidina-3(1,8)-naphthalenacyclononaphan-7-one] |
| 10000 to 30000 | Nc1ccc2c(c1F)-c1ncc3c(nc(OC[C@@]45CCCN4C[C@H](F)C5)nc3c1F)N1CCCC(CCNC(=O)CCCC2)C1 (stereo partly drawn) [Compound 160a, 3^5-amino-2^8,3^6-difluoro-2^2-(((2R,7aS)-2-fluorotetrahydro-1H-pyrrolizin-7a(5H)-yl)methoxy)-9-aza-2(4,7)-pyrido[4,3-d]pyrimidina-1(1,3)-piperidina-3(1,2)-benzenacycloundecaphan-8-one] |
| 100 to 1000 | Nc1cc2c3c(c(F)ccc3c1)CCCC(=O)NCC1COCCN(C1)c1nc(OC[C@@]34CCCN3C[C@H](F)C4)nc3c(F)c-2ncc13 (stereo partly drawn) [Compound 192a, 3^3-amino-2^8,3^7-difluoro-2^2-(((2R,7aS)-2-fluorotetrahydro-1H-pyrrolizin-7a(5H)-yl)methoxy)-8-aza-1(4,6)-oxazepana-2(4,7)-pyrido[4,3-d]pyrimidina-3(1,8)-naphthalenacyclononaphan-7-one] |

Same assay, conditions: Method 2, B; 5 nM KRas G12V (aa 1-169, GDP-loaded), 50 nM SOS1; read-out: KRas G12V IC50 (nM) (Method 2, B)

| SMILES | IC50 [nM] |
| --- | --- |
| O=C1CCCc2c(F)ccc3cccc(c23)-c2ncc3c(nc(OC[C@@]45CCCN4C[C@H](F)C5)nc3c2F)N2CCOCC(CN1)C2 (stereo partly drawn) [Compound 193a, 2^8,3^7-difluoro-2^2-(((2R,7aS)-2-fluorotetrahydro-1H-pyrrolizin-7a(5H)-yl)methoxy)-8-aza-1(4,6)-oxazepana-2(4,7)-pyrido[4,3-d]pyrimidina-3(1,8)-naphthalenacyclononaphan-7-one] | 100 to 1000 |
| Nc1cc2c(cc1F)CCCCC(=O)NCCC1CCCN(C1)c1nc(OC[C@@]34CCCN3C[C@H](F)C4)nc3c(F)c-2ncc13 (single isomer, unassigned) [Compound 159b] | 1000 to 10000 |
| Nc1cc2c(c(Cl)c1F)CCCCC(=O)NCCC1CCCN(C1)c1nc(OC[C@@]34CCCN3C[C@H](F)C4)nc3c(F)c-2ncc13 (stereo partly drawn) [Compound 172a, 3^5-amino-3^3-chloro-2^8,3^4-difluoro-2^2-(((2R,7aS)-2-fluorotetrahydro-1H-pyrrolizin-7a(5H)-yl)methoxy)-9-aza-2(4,7)-pyrido[4,3-d]pyrimidina-1(1,3)-piperidina-3(1,2)-benzenacycloundecaphan-8-one] | ≤ 100 |
| CN1C[C@H](F)C[C@H]1COc1nc2c3cnc(c(F)c3n1)-c1cc(N)cc(Cl)c1CCCCC(=O)NCCC1CCCN2C1 (stereo partly drawn) [Compound 179a, 3^5-amino-3^3-chloro-2^8-fluoro-2^2-(((2S,4R)-4-fluoro-1-methylpyrrolidin-2-yl)methoxy)-9-aza-2(4,7)-pyrido[4,3-d]pyrimidina-1(1,3)-piperidina-3(1,2)-benzenacycloundecaphan-8-one] | 100 to 1000 |
| Nc1cc2c(cc1F)CCCCC(=O)NCCC1CCCN(C1)c1nc(OC[C@@]34CCCN3C[C@H](F)C4)nc3c(F)c-2ncc13 (single isomer, unassigned) [Compound 159c] | 10000 to 30000 |

The next lines start with the values.

| IC50 [nM] | SMILES |
| --- | --- |
| 1000 to 10000 | Nc1cc2c(c(C(F)(F)F)c1)CCCCC(=O)NCCC1CCCN(C1)c1nc(OC[C@@]34CCCN3C[C@H](F)C4)nc3c(F)c-2ncc13 (stereo partly drawn) [Compound 181a, 3^5-amino-2^8-fluoro-2^2-(((2R,7aS)-2-fluorotetrahydro-1H-pyrrolizin-7a(5H)-yl)methoxy)-3^3-(trifluoromethyl)-9-aza-2(4,7)-pyrido[4,3-d]pyrimidina-1(1,3)-piperidina-3(1,2)-benzenacycloundecaphan-8-one] |
| 100 to 1000 | Nc1cc2c(c(Cl)c1F)CCCCC(=O)NCCC1COCCN(C1)c1nc(OC[C@@]34CCCN3C[C@H](F)C4)nc3c(F)c-2ncc13 (stereo partly drawn) [Compound 185a, 3^5-amino-3^3-chloro-2^8,3^4-difluoro-2^2-(((2R,7aS)-2-fluorotetrahydro-1H-pyrrolizin-7a(5H)-yl)methoxy)-9-aza-1(4,6)-oxazepana-2(4,7)-pyrido[4,3-d]pyrimidina-3(1,2)-benzenacycloundecaphan-8-one] |
| 100 to 1000 | Nc1cc2c3c(c(F)ccc3c1)CCCC(=O)NCC1COCCN(C1)c1nc(OC[C@@]34CCCN3C[C@H](F)C4)nc3c(F)c-2ncc13 (stereo partly drawn) [Compound 192a, 3^3-amino-2^8,3^7-difluoro-2^2-(((2R,7aS)-2-fluorotetrahydro-1H-pyrrolizin-7a(5H)-yl)methoxy)-8-aza-1(4,6)-oxazepana-2(4,7)-pyrido[4,3-d]pyrimidina-3(1,8)-naphthalenacyclononaphan-7-one] |
| ≤ 100 | O=C1CCCCc2c(Cl)cc(O)cc2-c2ncc3c(nc(OC[C@@]45CCCN4C[C@H](F)C5)nc3c2F)N2CCCC(O)(CCN1)C2 (single isomer, unassigned) [Compound 140c] |
